Results taken from US10426755B2, “Methods for inhibiting cancer cells” (Chang Gung Memorial Hospital, Chiayi, priority 2015, dated 2019).

System: lung cancer cell lines (A549 and chemotherapy-resistant/metastatic H460)
Assay: XTT proliferation assay, lung cancer cells
Assay type: cell-based
Conditions: DT 5, 10, 20 μM; gemcitabine hydrochloride and etoposide 10, 20 μM; 1-2 days; regardless of the dosage; also H460; FIG. 2
Experimental: The prostate cancer cells were plated at a density of 10^3 or 3×10^3 per well, in a 96-well plate, in a medium containing 10% Fetal bovine serum (FBS) (Gibco®, commercially available from Life Technologies, USA). Once the prostate cancer cells were attached to the culture dish, the 10% FBS medium was replaced with a second 10% FBS medium and each of the prostate cancer cell line was treated with 1, 5, and 10 μM of DT respectively for 1-2 days. The absorbance was measured using XTT assay kit (commercially available from Roche, Switzerland) at 492 nm using an ELISA reader (Bio-Rad Laboratories, USA). An in vitro evaluation of the effect of DT, gemcitabine (a chemotherapeutic agent) and etoposide (a chemotherapeutic agent) on the lung cancer cells was performed. The lung cancer cell lines, chemotherapy-resistant/metastatic H460 lung cancer cells (with pleural metastasis) and A549 lung cancer cells, were purchased from Bioresource Collection and Research Center, Taiwan. […] The absorbance was measured using XTT assay kit at 492 nm using an ELISA reader.

Compound | inhibition of lung cancer proliferation, DT compared with gemcitabine and etoposide
COc1cc([C@@H]2c3cc4c(cc3[C@@H](O[C@@H]3O[C@@H]5CO[C@@H](C)O[C@H]5[C@H](O)[C@H]3O)[C@H]3COC(=O)[C@H]23)OCO4)cc(OC)c1O [etoposide, reference compound] | DT is more effective than gemcitabine and etoposide
Nc1ccn([C@@H]2O[C@H](CO)[C@@H](O)C2(F)F)c(=O)n1 [gemcitabine, reference compound] | DT is more effective than gemcitabine and etoposide
